This assay deals with D184A mutant CB1 receptor (Homo sapiens, UniProt P21554, D184A). Nature of the assay: Methanandamide competition binding with [3H]CP55940 as tracer. As to conditions: [3H]CP55940 tracer.
Chain of D184A mutant CB1 receptor (P21554 whole entry D184A): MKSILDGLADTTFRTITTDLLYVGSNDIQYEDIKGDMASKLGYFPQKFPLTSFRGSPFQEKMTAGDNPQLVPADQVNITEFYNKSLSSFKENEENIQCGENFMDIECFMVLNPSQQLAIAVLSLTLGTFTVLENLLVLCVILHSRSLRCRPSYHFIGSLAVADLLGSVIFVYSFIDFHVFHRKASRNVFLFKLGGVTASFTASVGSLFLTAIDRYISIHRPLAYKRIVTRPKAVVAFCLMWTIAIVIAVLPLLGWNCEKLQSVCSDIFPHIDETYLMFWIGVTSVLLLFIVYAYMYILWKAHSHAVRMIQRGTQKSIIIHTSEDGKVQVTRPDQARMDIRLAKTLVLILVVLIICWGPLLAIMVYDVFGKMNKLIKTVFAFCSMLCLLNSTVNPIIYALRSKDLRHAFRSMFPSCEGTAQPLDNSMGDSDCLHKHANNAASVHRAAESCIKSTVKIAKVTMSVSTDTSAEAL

On to `CCCCC/C=C\C/C=C\C/C=C\C/C=C\CCCC(=O)N[C@H](C)CO` [methanandamide], for which the methanandamide binding entry (agonist alone, no modulator) is “did not bind” and the methanandamide binding result (with 1 μM PSNCBAM-1) is given as “binding was restored”.

For the origin of these results see paper PMC6906232 (The Journal of pharmacy and pharmacology, 2019).
